Our source for the AC50 and EC50 values is patent US20240316038A1, “APOL1 INHIBITORS AND METHODS OF USE” (Maze Therapeutics, Inc., priority 2021, published 2024).

Some results are limits rather than exact numbers.

Assay [1] deals with T1, APOL1 G2 (Homo sapiens, UniProt O14791, DEL388-389).
T1 construct: expressed in transfected cells; host or cells: HEK293 T-REx clonal lines: HEK T-REx/GCaMP6f/APOL1 G2 K6.3 in A1, HEK293/T-REx APOL1 G2/clone #2 in A2
T1 sequence (O14791 with tags, fused parts or gaps DEL388-389): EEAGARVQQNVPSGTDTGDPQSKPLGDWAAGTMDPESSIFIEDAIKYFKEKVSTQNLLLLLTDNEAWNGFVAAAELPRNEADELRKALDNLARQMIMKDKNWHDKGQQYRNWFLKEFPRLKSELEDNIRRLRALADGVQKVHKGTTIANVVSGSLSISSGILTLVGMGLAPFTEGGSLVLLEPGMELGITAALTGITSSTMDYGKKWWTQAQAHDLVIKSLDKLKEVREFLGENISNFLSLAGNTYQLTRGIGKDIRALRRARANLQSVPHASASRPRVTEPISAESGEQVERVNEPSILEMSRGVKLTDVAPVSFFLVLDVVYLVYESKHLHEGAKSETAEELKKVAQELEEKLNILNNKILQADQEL
The assay can be described thus: APOL1 calcium transport inhibition assay (GCaMP6f calcium influx, FLIPR) in HEK T-REx/GCaMP6f/APOL1 G2 K6.3 cells. The conditions noted are these: inhibition of APOL1-mediated calcium influx; geometric mean of at least 2 assay runs, † = single assay run (technical duplicate). The assay is classed as cell-based. Here is the method: A HEK293 clonal cell line was generated to stably express GCaMP6f, a genetically encoded calcium indicator, and inducibly express APOL1 G2 (HEK T-REx/GCaMP6f/APOL1 G2 K6.3). Cells were maintained in the following standard complete medium: DMEM with 4.5 g/L glucose and sodium pyruvate (BioWhittaker, Lonza, BE12-614F), supplemented with 10% FBS Performance Plus (Gibco, 16000044), 1% penicillin-streptomycin (BioWhittaker, DE17-602E), 2 mM ultraglutamine-1 (BioWhittaker cat. BE 17-605/U1), 50 μg/mL Zeocin (InvivoGen, ant-zn), 2.5 μg/mL Blasticidin (InvivoGen, ant-bl-5), and 25 μg/mL Hygromycin (InvivoGen, ant-hg). Standard propagation conditions consisted of plating 9×10^6, 4×10^6, 2×10^6 cells in a T225 flasks to be processed after 2, 3, or 4 days, respectively.
A source plate was generated containing 20 serially diluted compounds in DMSO (duplicate 8-point dose response). Next, 0.8 μL of compounds were transferred from the source plate to a destination plate prefilled with 79.2 μL of Ca^2+ free Tyrode's buffer (130 mM NaCl, 5 mM KCl, 1 mM MgCl2, 5 mM NaHCO3, 20 mM HEPES at pH 7.4). The destination plate was placed on a plate shaker (5 seconds at 2000 rpm) to mix. […] All transfer and mixing steps were conducted with an CyBi®-Well dispenser.
Cells were split by gently washing with DPBS (Euroclone, ECB4004L), followed by a 5-minute incubation (humidified, 37° C. with 5% CO2) with trypsin-EDTA solution (Euroclone, ECB3052D). Detached cells were diluted with standard complete medium without selective agents, counted, and plated in a 384 MTP microplate (GR4332CPL, Twin Helix) (10,000 cells/well in 25 μl/well) using a MATRIX WellMate dispenser. Plates were placed into a humidified incubator (37° C. with 5% CO2) overnight. The following day, 20 μL of doxycycline (Sigma, D9891) at 20 ng/mL in standard complete medium was added to cells with a CyBi @Drop dispenser to induce APOL1 G2 expression. After a 6-hour incubation (humidified, 37° C. with 5% CO2), cells were washed 3 times with Ca^2+ free Tyrode's Buffer (130 mM NaCl, 5 mM KCl, 1 mM MgCl2, 5 mM NaHCO3, 20 mM HEPES at pH 7.4) using a BIOTEK Microplate washer, such that 10 μL of buffer remained in each well after the final wash. Assay plates were then stored at room temperature for 10 minutes. Next, 10 μL of diluted compounds were transferred to the assay plate from the 2× compound plate using a CyBi®-Well dispenser. Compound incubation was then carried out at room temperature for 10 minutes. The assay plate was transferred to the […] and 20 μL of 10 mM Ca^2+ (final concentration=5 mM) Tyrode's buffer was injected.
Table B1 below summarizes the data from this experiment. Unless otherwise specified, AC50 and values are reported as the geometric mean of at least 2 assay runs on separate days. Each run represents the average of a technical replicate, where each compound was assayed twice in the same plate. A superscript † symbol indicates a value from the average of a technical replicate from a single assay run, where each compound was assayed twice in the same plate.
The AC50 values in Table B1 below reflect the compound's ability to prevent calcium influx by inhibiting APOL1. […] Compounds in Table B1 are referred to by the corresponding Compound Number in Table 1, which is also referred to in the synthetic examples. When one or more of the numbered compounds are identified by stereochemistry (for example, (R)- or (S)—), the specific stereoisomer for which data is provided in Table B1 may be identified by the elution order of such compound as described in the synthetic examples. To illustrate, Compound 2 is the first-eluting enantiomer of step 4 of Example 1 and Compound 3 is the second-eluting enantiomer of step 4 of Example 1. Further, by way of illustration, Compound 27 is the first-eluting enantiomeric mixture in step 4 of Example 7 and Compound 28 is the second-eluting enantiomeric mixture in step 4 of Example 7. […]

The target in assay [2] is T1, APOL1 G2. As to the kind of experiment: Rescue of HEK293 cell death caused by overexpression of APOL1 (CellTiter-Glo luminescence), HEK293/T-REx APOL1 G2/clone #2. It counts as cell-based. The note with it: reversal of cell death caused by overexpression of APOL1; geometric mean of at least 2 assay runs, † = single assay run (technical duplicate). Here is the method:
A HEK293 clonal cell line overexpressing APOL1 G2 (HEK293/T-REx APOL1 G2/clone #2) was maintained in 1×DMEM-GlutaMax (Gibco, 10569-010) media with 10% tetracycline-free FBS (Takara Bio USA, 631101), 5 μg/mL Blasticidin (Gibco, A1113903), and 100 μg/mL Zeocin (Invitrogen, R25001) in T75 flasks. In preparation for the assay, this media was aspirated and 2 mL of prewarmed TrypLE Express (Gibco, 12605-010) was added to a flask to detach cells. The flask was then incubated (humidified, 37° C. with 5% CO2) for 3-5 minutes. Afterwards, 8 mL of prewarmed cell assay media (lx DMEM-GlutaMax media with 10% tetracycline-free FBS) was added to the trypsinized cells. The suspension was gently mixed, and cells were counted using a Countess Cell Counting Chamber (Invitrogen). The suspension was diluted using cell assay media to generate a working stock solution (166,667 cells/mL). Using a MultiDrop Combi (Thermo Electron Corp), 30 μL (final cell density=5,000 cells/well) of the working stock solution was dispensed into each well of white 384-well assay ready plates (Nunc™, 164610) containing 6 ng/mL doxycycline, to induce APOL1 expression, and compound. All compounds were plated in a duplicate 8-point dilution series that consisted of 3-fold stepwise dilutions (0.5% DMSO final). Assay plates were incubated (humidified, 37° C. with 5% CO2) for 17 hours. After the incubation, the plates were equilibrated at room temperature for 1 hour. Next, 15 μl of CellTiter-Glo® reagent (Promega, G7570) was added to each well using a MultiDrop Combi. Plates were placed on an orbital shaker (500 rpm) for 5 minutes to induce cell lysis and then incubated at room temperature for 10 minutes. Luminescence was measured on an Envision plate reader. Collaborative Drug Discovery software was utilized for graphing data. Plots were generated using a four parameter logistic curve fit.
Table B2 below provides the results from this experiment. Unless otherwise specified, EC50 values are reported as the geometric mean of at least 2 assay runs on separate days. Each run represents the average of a technical replicate, where each compound was assayed twice in the same plate. A superscript t symbol indicates a value from the average of a technical replicate from a single assay run, where each compound was assayed twice in the same plate. Compounds in Table B2 are referred to by the corresponding Compound Number in Table 1, which is also referred to in the synthetic examples. When one or more of the numbered compounds are identified by stereochemistry (for example, (R)- or (S)—), the specific stereoisomer for which data is provided in Table B2 may be identified by the elution order of such compound as described in the synthetic examples. To illustrate, Compound 2 is the first-eluting enantiomer of step 4 of Example 1 and Compound 3 is the second-eluting enantiomer of step 4 of Example 1. Further, by way of illustration, Compound 27 is the first-eluting enantiomeric mixture in step 4 of Example 7 and Compound 28 is the second-eluting enantiomeric mixture in step 4 of Example 7. Then, Compound 27 is separated into Compound 29 (the first-eluting enantiomer) and Compound 30 (the second-eluting enantiomer) in Example 8, and Compound 28 is separated into Compound 31 (the first-eluting enantiomer) and Compound 32 (the second-eluting enantiomer) in Example 8. Absolute stereochemistry of such compounds may be identified by methods known in the art.
Rescue EC50 values reported in Table B2 below represent the half-maximal effective concentration for reversal of cell death caused by overexpression of APOL1.

For orientation: AC50 means the concentration giving half of the maximal activity seen. As usually defined, the EC50 is the concentration at which the effect is half-maximal. Take `COC(CN1CCC[C@H](COc2ccc(S(C)(=O)=O)cc2)C1)c1cccc(Cl)c1` (single isomer, unassigned) [Compound 24, (S)-1-((S)-2-(3-chlorophenyl)-2-methoxyethyl)-3-((4-(methylsulfonyl)phenoxy)methyl)piperidine or (S)-1-((R)-2-(3-chlorophenyl)-2-methoxyethyl)-3-((4-(methylsulfonyl)phenoxy)methyl)piperidine]: the AC50 at APOL1 G2 [1] came out at 501 nM. Moreover, the EC50 at APOL1 G2 [2] came to 334 nM.

`COC(CN1CCC[C@@H](COc2ccc(S(C)(=O)=O)cc2)C1)c1cccc(Cl)c1` (single isomer, unassigned) [Compound 25, (R)-1-((R)-2-(3-chlorophenyl)-2-methoxyethyl)-3-((4-(methylsulfonyl)phenoxy)methyl)piperidine or (R)-1-((S)-2-(3-chlorophenyl)-2-methoxyethyl)-3-((4-(methylsulfonyl)phenoxy)methyl)piperidine]: on APOL1 G2 [1], the concentration at half-maximal activity (AC50) was 469 nM. The EC50 at APOL1 G2 [2] came out at 1010 nM.

Regarding `COC(CN1CCC[C@@H](COc2ccc(S(C)(=O)=O)cc2)C1)c1cccc(Cl)c1` (single isomer, unassigned) [Compound 26, (R)-1-((S)-2-(3-chlorophenyl)-2-methoxyethyl)-3-((4-(methylsulfonyl)phenoxy)methyl)piperidine or (R)-1-((R)-2-(3-chlorophenyl)-2-methoxyethyl)-3-((4-(methylsulfonyl)phenoxy)methyl)piperidine], the AC50 at APOL1 G2 [1] amounted to 1540 nM. Besides, the EC50 at APOL1 G2 [2] is 2240 nM.

As for `CS(=O)(=O)c1ccc(OCC2CN(CCc3cccc(Cl)c3)CCC2O)cc1` (single isomer, unassigned) [Compound 29, (3S,4R) or (3R,4R) or (3S,4S) or (3R,4S)-1-(3-chlorophenethyl)-3-((4-(methylsulfonyl)phenoxy)methyl)piperidin-4-ol], the AC50 on APOL1 G2 [1] was 1980 nM. The EC50 at APOL1 G2 [2] is greater than 12200 nM.

Consider `CS(=O)(=O)c1ccc(OCC2CN(CCc3cccc(Cl)c3)CCC2O)cc1` (single isomer, unassigned) [Compound 30, (3R,4R) or (3S,4S) or (3R,4S) or (3S,4R)-1-(3-chlorophenethyl)-3-((4-(methylsulfonyl)phenoxy)methyl)piperidin-4-ol], for which the AC50 on APOL1 G2 [1] turned out to be 864 nM. For the same compound, the EC50 on APOL1 G2 [2] came to 2410 nM.

Consider `CS(=O)(=O)c1ccc(OCC2CN(CCc3cccc(Cl)c3)CCC2O)cc1` (single isomer, unassigned) [Compound 31, (3R,4R) or (3S,4S) or (3R,4S) or (3S,4R)-1-(3-chlorophen-ethyl)-3-((4-(methylsulf-onyl)phenoxy)methyl) piperidin-4-ol], for which, at APOL1 G2 [1], the AC50 worked out at 1020 nM. Also, on APOL1 G2 [2], the EC50 was greater than 7890 nM.

As for `CS(=O)(=O)c1ccc(OCC2CN(CCc3cccc(Cl)c3)CCC2O)cc1` (single isomer, unassigned) [Compound 32, (3S,4S) or (3R,4S) or (3S,4R) or (3R,4R)-1-(3-chlorophen-ethyl)-3-((4-(methylsulf-onyl)phenoxy)methyl) piperidin-4-ol], the AC50 on APOL1 G2 [1] was found to be 731 nM. For the same compound, the concentration for a half-maximal effect (EC50) at APOL1 G2 [2] came to 5770 nM.

Consider `COC1CCN(CCc2cccc(Cl)c2)CC1COc1ccc(S(C)(=O)=O)cc1` (single isomer, unassigned) [Compound 33, rac-trans or cis-1-(3-chlorophenethyl)-4-methoxy-3-((4-(methylsulfonyl)phenoxy)methyl)piperidine], for which, at APOL1 G2 [1], the AC50 stood at 10800 nM. Moreover, the EC50 at APOL1 G2 [2] was greater than 8670 nM.

With `COC1CCN(CCc2cccc(Cl)c2)CC1COc1ccc(S(C)(=O)=O)cc1` (single isomer, unassigned) [Compound 34, rac-cis or trans-1-(3-chlorophenethyl)-4-methoxy-3-((4-(methylsulfonyl)phenoxy)methyl)piperidine], the AC50 on APOL1 G2 [1] came out at 991 nM. In addition, on APOL1 G2 [2], the EC50 is 779 nM.
